Experimental data reported in patent publication US9108930B2, “N1- and N2-carbamoyl-1,2,3-triazole serine hydrolase inhibitors and methods” (The Scripps Research Institute, priority 2011, dated 2015).

Legend:
[1] = molecular target: T1, DAGLB (Mus musculus, UniProt Q91WC9); assay: Gel-based ABPP assay against recombinant DAGLB (HEK293T-DAGLB lysates); type: biochemical; parameters: Full-length cDNAs encoding serine hydrolases were purchased from Open Biosystems; V5; host or cells: HEK293T; settings: recombinant
T1 sequence (Q91WC9 1-669): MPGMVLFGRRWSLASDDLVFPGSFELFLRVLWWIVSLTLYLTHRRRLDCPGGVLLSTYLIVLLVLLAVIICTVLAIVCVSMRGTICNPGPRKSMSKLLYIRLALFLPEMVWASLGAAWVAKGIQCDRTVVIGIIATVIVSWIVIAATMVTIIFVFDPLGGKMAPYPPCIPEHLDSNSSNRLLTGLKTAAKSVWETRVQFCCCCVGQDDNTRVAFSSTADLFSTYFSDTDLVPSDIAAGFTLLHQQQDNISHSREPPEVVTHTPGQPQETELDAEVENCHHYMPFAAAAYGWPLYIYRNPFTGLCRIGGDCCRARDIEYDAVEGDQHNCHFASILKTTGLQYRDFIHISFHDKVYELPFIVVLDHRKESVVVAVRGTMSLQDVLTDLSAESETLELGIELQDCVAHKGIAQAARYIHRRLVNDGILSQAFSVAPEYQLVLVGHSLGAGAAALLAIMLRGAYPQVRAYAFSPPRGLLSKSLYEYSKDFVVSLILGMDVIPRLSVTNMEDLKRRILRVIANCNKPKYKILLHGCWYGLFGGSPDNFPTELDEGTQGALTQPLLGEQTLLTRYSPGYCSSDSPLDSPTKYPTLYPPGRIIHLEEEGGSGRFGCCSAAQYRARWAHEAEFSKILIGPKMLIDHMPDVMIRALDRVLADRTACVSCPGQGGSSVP

[2] = molecular target: T1, DAGLB; assay: In vivo DAGLB inactivation in peritoneal macrophages, gel-based competitive ABPP using HT01; parameters: from tissue; host or cells: thioglycolate-elicited peritoneal macrophages of treated mice; settings: for dose (as low as) giving complete inactivation of DAGLB in peritoneal macrophages: about 4 hours, doses about 10 to about 0.1 mg/kg
[3] = test system: serine hydrolases in mouse brain proteome; assay: Selectivity profile by competitive ABPP (mouse brain proteome), DAGL series; type: biochemical
[4] = test system: peritoneal macrophages of Pla2g4a-/- mice; assay: LPS-stimulated TNF-alpha release, macrophages from treated Pla2g4a-/- mice; type: in vivo, mouse; settings: 5 mg/kg, 4 hours, i.p.
Procedure: Next, the cytokine profiles from a Pla2g4a^+/+ background were compared with the profiles from Pla2g4a^−/− mice treated with KT109 or KT195 (5 mg/kg, 4 hours, i.p.). […] However, no significant differences in LPS-stimulated TNF-alpha levels were observed from Pla2g4a^+/+ versus […].

[5] = test system: peritoneal macrophages; assay: Metabolomics of thioglycolate-elicited peritoneal macrophages from treated mice; type: in vivo, mouse; settings: 5 mg/kg, 4 hours, i.p.
Procedure: Mice were treated with KT109, KT172 or KT195 (5 mg/kg, 4 hours, i.p.) to evaluate whether blockade of DAGLB in peritoneal macrophages would result in metabolic effects similar to those observed in Neuro2A cells. Thioglycolate-elicited peritoneal macrophages were harvested, and the cells were subjected to metabolomics studies. […] All the metabolic effects observed in pharmacological studies were recapitulated using Daglb^−/− mice, providing genetic evidence that the changes were indeed DAGLB-mediated.
Metabolites were quantified by either selected reaction monitoring (SRM) of each metabolite using an Agilent G6410B Triple-Quad instrument or untargeted metabolomic analysis (substrate assays) using an Agilent 1100 series LC-MSD SL instrument. […] For analysis of diacylglycerols (DAGs) a Luna C5 column (50 mm×4.60 mm with 5 μm diameter particles) from Phenomenex was used. Mobile phase A was made of 95:5 v/v H2O:MeOH, and mobile phase B was composed of 60:35:5 v/v/v i-PrOH:MeOH:H2O. Ammonium hydroxide (0.1%) and formic acid (0.1%) was included to assist in ion formation in negative and positive ionization modes, respectively. For analysis of DAGs, 5 mM ammonium formate was also used in addition to 0.1% formic acid to assist in positive ionization and NH4+ adduct formation. For metabolite measurements, cells were resuspended in 1 mL of a 1% NaCl solution and added to 3 mL of a 2:1 v/v CHCl3:MeOH doped with 1 nmol of the following internal standards: d5-2-arachidonoylglycerol (2-AG), d8-arachidonic acid (AA), and d8-1-stearoyl-2-arachidonoylglycerol (SAG). The mixture was vortexed and then centrifuged (1,400×g, 3 min). The organic layer was removed, CHCl3 was added until the final volume was again 4 ml, and the extraction was repeated. The combined organic extracts were dried under a stream of N2 and resolubilized in 2:1 v/v CHCl3:MeOH (120 μl). 30 μL of resolubilized lipids were injected for positive mode (MAGs and DAGs) and negative mode (free fatty acids and eicosanoids) measurements.
The following parameters (MS) were used to measure the indicated metabolites by SRM (precursor ion, product ion, collision energy in V, polarity): C20:4 MAG or 2-AG (379, 287, 8, positive), d5-2-AG (384, 287, 5, positive), C18:0/C20:4 DAG or SAG (662, 341, 15, positive), d8-SAG (671, 671, 0, positive), C18:1/C20:4 DAG (660, 341, 15, positive), C16:0/C20:4 DAG (634, 341, 15, positive), C14:0/C20:4 DAG (606, 341, 15, positive), arachidonic acid or AA (303, 303, 0, negative), d8-AA (311, 267, 5, negative), PGE2 (351, 271, 10, negative), and PGD2 (351, 271, 10, negative). MS analysis was performed with an electrospray ionization source with the following parameters: drying gas temperature=350° C., drying gas flow rate=11 L/min, and the nebulizer pressure=35 psi. Prostaglandin SRM parameters were based on previously reported methods and transitions. Metabolites targeted by SRM were quantified by measuring the area under the peak in comparison with the internal standards. For metabolites where isotopic internal standards were not used, external standard curves with the internal standard versus metabolite standard were generated. In DAGL substrate assays, formation of the hydrolysis product, 2-AG was followed by measuring the area under the peak for 2-AG in comparison to the 1-monopentadecanoin standard ion.

SMILES | activity against DAGLB [1] | time to complete inhibition of DAGLB ([2]; 5 mg/kg, i.p.) | dose (as low as) giving complete inactivation of DAGLB in peritoneal macrophages ([2]; i.p.) | inhibition at 5 mg/kg ([2]; mouse, ip, read-out: persistent inhibition of DAGLB after 16 hours) | off-target activity / selectivity against other serine hydrolases [3] | increase of TNF-alpha levels upon LPS stimulation [4] | change in 2-AG [5] | change in SAG [5] | change in cellular AA, PGE2 and PGD2 [5] | duration / time-course of DAGLB inhibition ([2]; 5 mg/kg, i.p., about 1 to 16 hours) | effect on TNF-alpha levels upon LPS stimulation [4]
O=C(N1CCCCC1Cc1ccccc1)n1cc(-c2ccc(-c3ccccc3)cc2)nn1 (stereo not shown) [KT109] | maintaining comparable potencies against DAGLB | within the first hour | 0.5 mg/kg | ~90% | improved selectivity against FAAH, MGLL, and ABHD11 | 2 fold | Dramatic decreases in 2-AG | significant increases in SAG | significant decreases in cellular AA levels and a corresponding reduction in PGE2 and PGD2 | – | –
COc1ccc(-c2ccc(-c3cn(C(=O)N4CCCCC4c4ccccc4)nn3)cc2)cc1 (stereo not shown) [KT195] | negligible activity against DAGLB at micromolar concentrations | – | > 10 mg/kg | – | completely inactivated ABHD6 | – | no observable changes | – | None of these effects were observed | no evidence of DAGLB inhibition during the entire time-course of treatment | no observable effects
